What was measured:
[1] = target: T1, ELIC (Dickeya chrysanthemi, UniProt P0C7B7, INS163G); settings: single channel data; ref Marabelli et al., in preparation; cited from earlier work
T1 construct: expressed in transfected cells; host or cells: HEK 293 cells (ATCC CRL-1573), pcDNA3

[2] = target: T2, ELIC D113A (Dickeya chrysanthemi, UniProt P0C7B7, D113A/INS163G); assay: Two-electrode voltage clamp, ELIC D113A in oocytes; format: cell-based, Erwinia chrysanthemi; settings: agonist cysteamine
T2 construct: expressed in transfected cells; host or cells: X. laevis oocytes
Procedure: (§1) Constructs containing the gene of either the WT or mutant channels preceded by the signal sequence of the chicken α7nAchR were cloned into the pTLN vector for expression in X. laevis oocytes. After linearization of the plasmid DNA by MluI, capped complementary RNA was transcribed with the mMessage mMachine kit (Ambion) and purified with the RNeasy kit (Qiagen). For expression, 1–50 ng of RNA was injected into defolliculated oocytes. Two-electrode voltage clamp measurements were performed 1 d after injection at 20°C (OC-725B, Warner Instrument Corp.). Currents were recorded in bath solutions containing 10 mM HEPES (pH 7), 130 mM NaCl, and the indicated concentrations of cysteamine and divalent cations. In case of solutions containing Zn^2+, cysteamine was replaced by propylamine. The membrane potential in all dose–response measurements was set to −40 mV. As ELIC is permeable to divalent cations, we tested if endogenous calcium-activated chloride channels affected our measurements. To chelate intracellular calcium ions, the oocytes were incubated for 15 to 30 min in bath solutions lacking divalent ions but containing 10 µM BAPTA-AM.

[3] = target: T3, ELIC D113N (Dickeya chrysanthemi, UniProt P0C7B7, D113N/INS163G); assay: Two-electrode voltage clamp, ELIC D113N in oocytes; format: cell-based, Erwinia chrysanthemi; settings: agonist cysteamine
T3 construct: expressed in transfected cells; host or cells: X. laevis oocytes
Procedure: as §1

[4] = target: T4, ELIC E150Q (Dickeya chrysanthemi, UniProt P0C7B7, E150Q/INS163G); assay: Two-electrode voltage clamp, ELIC E150Q in oocytes; format: cell-based, Erwinia chrysanthemi; settings: agonist cysteamine
T4 construct: expressed in transfected cells; host or cells: X. laevis oocytes
Procedure: as §1

[5] = target: T5, ELIC D86A (Dickeya chrysanthemi, UniProt P0C7B7, D86A/INS163G); assay: Two-electrode voltage clamp, ELIC D86A in oocytes; format: cell-based, Erwinia chrysanthemi; settings: agonist cysteamine
T5 construct: expressed in transfected cells; host or cells: X. laevis oocytes
Procedure: as §1

[6] = target: T6, ELIC D113A/D158A (Dickeya chrysanthemi, UniProt P0C7B7, D113A/D158A/INS163G); assay: cell-based; format: cell-based, Erwinia chrysanthemi; settings: 113A/158A, agonist cysteamine
T6 construct: expressed in transfected cells; host or cells: X. laevis oocytes
Procedure: as §1

[7] = target: T7, ELIC WT (Dickeya chrysanthemi, UniProt P0C7B7); assay: cell-based; format: cell-based, Erwinia chrysanthemi; settings: agonist cysteamine
T7 construct: expressed in transfected cells; host or cells: X. laevis oocytes (cRNA injection, pTLN vector)
Procedure: as §1

[8] = target: T8, ELIC D158N (Dickeya chrysanthemi, UniProt P0C7B7, D158N/INS163G); assay: Two-electrode voltage clamp, ELIC D158N in oocytes; format: cell-based, Erwinia chrysanthemi; settings: agonist cysteamine
T8 construct: expressed in transfected cells; host or cells: X. laevis oocytes
Procedure: as §1

[9] = target: T9, ELIC E150A (Dickeya chrysanthemi, UniProt P0C7B7, E150A/INS163G); assay: Two-electrode voltage clamp, ELIC E150A in oocytes; format: cell-based, Erwinia chrysanthemi; settings: agonist cysteamine
T9 construct: expressed in transfected cells; host or cells: X. laevis oocytes
Procedure: as §1

[10] = target: T10, ELIC N251A (Dickeya chrysanthemi, UniProt P0C7B7, N250A); assay: Two-electrode voltage clamp, ELIC N251A in oocytes; format: cell-based, Erwinia chrysanthemi; settings: agonist cysteamine
T10 construct: expressed in transfected cells; host or cells: X. laevis oocytes
Procedure: as §1

[11] = target: T11, ELIC S84A (Dickeya chrysanthemi, UniProt P0C7B7, INS163G/S84A); assay: Two-electrode voltage clamp, ELIC S84A in oocytes; format: cell-based, Erwinia chrysanthemi; settings: S84A, agonist cysteamine
T11 construct: expressed in transfected cells; host or cells: X. laevis oocytes
Procedure: as §1

[12] = tested on: ELIC S84A; assay: Two-electrode voltage clamp, ELIC S84A in oocytes; format: cell-based, Erwinia chrysanthemi; settings: S84A as printed in the N251A line (r30); Ca^2+ 10 mM; agonist cysteamine
Procedure: as §1

[13] = target: T12, ELIC R91A (Dickeya chrysanthemi, UniProt P0C7B7, INS163G/R91A); assay: Two-electrode voltage clamp, ELIC R91A in oocytes; format: cell-based, Erwinia chrysanthemi; settings: R91A, agonist cysteamine
T12 construct: expressed in transfected cells; host or cells: X. laevis oocytes
Procedure: as §1

Structure (SMILES): NCCS [cysteamine]
- maximum Popen [1]: 98%
- EC50 ([2]; Ca^2+ 0 mM): 950 µM
- EC50 ([2]; Ca^2+ 1 mM): 880 µM
- EC50 ([2]; Ca^2+ 2.5 mM): 1460 µM
- EC50 ([2]; Ca^2+ 5 mM): 1860 µM
- EC50 ([2]; Ca^2+ 10 mM): 2900 µM
- EC50 ([2]; Ca^2+ 25 mM): 6370 µM
- EC50 ([3]; Ca^2+ 0 mM): 920 µM
- EC50 ([3]; Ca^2+ 1 mM): 1810 µM
- EC50 ([3]; Ca^2+ 5 mM): 5590 µM
- EC50 ([3]; Ca^2+ 10 mM): 9780 µM
- EC50 ([4]; Ca^2+ 0 mM): 2920 µM
- EC50 ([4]; Ca^2+ 1 mM): 5290 µM
- EC50 ([4]; Ca^2+ 5 mM): 14600 µM
- EC50 ([4]; Ca^2+ 10 mM): 21900 µM
- EC50 ([5]; Ca^2+ 0 mM): 570 µM
- EC50 ([5]; Ca^2+ 1 mM): 2300 µM
- EC50 ([5]; Ca^2+ 5 mM): 5310 µM
- EC50 ([5]; Ca^2+ 10 mM): 11200 µM
- EC50 ([6]; Ba^2+ 1 mM): 3070 µM
- EC50 ([6]; Ba^2+ 5 mM): 3070 µM
- EC50 ([6]; Ba^2+ 10 mM): 5420 µM
- EC50 ([6]; Ca^2+ 0 mM): 2330 µM
- EC50 ([6]; Ca^2+ 1 mM): 1590 µM
- EC50 ([6]; Ca^2+ 5 mM): 1810 µM
- EC50 ([6]; Ca^2+ 10 mM): 2960 µM
- EC50 ([6]; Ca^2+ 25 mM): 3350 µM
- EC50 ([7]; WT/0.25Ca^2+, ACh 0 mM): 640 µM
- EC50 ([7]; WT/0.25Ca^2+, ACh 1 mM): 1160 µM
- EC50 ([7]; WT/0.25Ca^2+, ACh 5 mM): 3460 µM
- EC50 ([7]; WT/0.25Ca^2+, ACh 10 mM): 5080 µM
- EC50 ([7]; WT/0.5Ca^2+, ACh 0 mM): 1000 µM
- EC50 ([7]; WT/0.5Ca^2+, ACh 1 mM): 1830 µM
- EC50 ([7]; WT/0.5Ca^2+, ACh 5 mM): 4030 µM
- EC50 ([7]; WT/0.5Ca^2+, ACh 10 mM): 8450 µM
- EC50 ([7]; WT/1Ca^2+, ACh 0 mM): 1730 µM
- EC50 ([7]; WT/1Ca^2+, ACh 1 mM): 2680 µM
- EC50 ([7]; WT/1Ca^2+, ACh 5 mM): 5120 µM
- EC50 ([7]; WT/1Ca^2+, ACh 10 mM): 8240 µM
- EC50 ([7]; WT/BAPTA, Ca^2+ 0 mM): 360 µM
- EC50 ([7]; WT/BAPTA, Ca^2+ 0.25 mM): 840 µM
- EC50 ([7]; WT/BAPTA, Ca^2+ 0.5 mM): 1070 µM
- EC50 ([7]; WT/BAPTA, Ca^2+ 1.0 mM): 2230 µM
- EC50 ([7]; WT, ACh 1 mM): 570 µM
- EC50 ([7]; WT, ACh 5.0 mM): 1490 µM
- EC50 ([7]; WT, ACh 10.0 mM): 2250 µM
- EC50 ([7]; WT, Ba^2+ 1 mM): 760 µM
- EC50 ([7]; WT, Ba^2+ 5 mM): 2680 µM
- EC50 ([7]; WT, Ba^2+ 10 mM): 5270 µM
- EC50 ([7]; WT, Ca^2+ 0 mM): 360 µM
- EC50 ([7]; WT, Ca^2+ 0.1 mM): 350 µM
- EC50 ([7]; WT, Ca^2+ 0.25 mM): 640 µM
- EC50 ([7]; WT, Ca^2+ 0.5 mM): 1000 µM
- EC50 ([7]; WT, Ca^2+ 1.0 mM): 1730 µM
- EC50 ([7]; WT, Ca^2+ 2.5 mM): 2460 µM
- EC50 ([7]; WT, Ca^2+ 5.0 mM): 4370 µM
- EC50 ([7]; WT, Mg^2+ 1 mM): 1040 µM
- EC50 ([7]; WT, Mg^2+ 5 mM): 3050 µM
- EC50 ([7]; WT, Mg^2+ 10 mM): 5310 µM
- EC50 ([7]; WT, Sr^2+ 1 mM): 750 µM
- EC50 ([7]; WT, Sr^2+ 5 mM): 2110 µM
- EC50 ([7]; WT, Sr^2+ 10 mM): 3410 µM
- EC50 ([8]; Ca^2+ 0 mM): 3880 µM
- EC50 ([8]; Ca^2+ 1 mM): 5610 µM
- EC50 ([8]; Ca^2+ 5 mM): 8500 µM
- EC50 ([8]; Ca^2+ 10 mM): 11200 µM
- EC50 ([9]; Ca^2+ 0 mM): 1400 µM
- EC50 ([9]; Ca^2+ 1 mM): 2200 µM
- EC50 ([9]; Ca^2+ 5 mM): 6100 µM
- EC50 ([9]; Ca^2+ 10 mM): 8990 µM
- EC50 ([10]; Ca^2+ 0 mM): 290 µM
- EC50 ([10]; Ca^2+ 1 mM): 840 µM
- EC50 ([10]; Ca^2+ 5 mM): 1900 µM
- EC50 ([11]; Ca^2+ 0 mM): 360 µM
- EC50 ([11]; Ca^2+ 1 mM): 1550 µM
- EC50 ([11]; Ca^2+ 5 mM): 2740 µM
- EC50 ([11]; Ca^2+ 10 mM): 5430 µM
- EC50 [12]: 5310 µM
- EC50 ([13]; ACh 1 mM): 400 µM
- EC50 ([13]; ACh 5 mM): 880 µM
- EC50 ([13]; ACh 10 mM): 1780 µM
- EC50 ([13]; Ca^2+ 0 mM): 90 µM
- EC50 ([13]; Ca^2+ 0.5 mM): 240 µM
- EC50 ([13]; Ca^2+ 1 mM): 410 µM
- EC50 ([13]; Ca^2+ 5 mM): 920 µM
- EC50 ([13]; TMA 10 mM): 230 µM
- EC50 ([13]; TMA 25 mM): 330 µM
- EC50 ([13]; TMA 50 mM): 590 µM

Reference: publication PMC3502511, “Inhibition of the Prokaryotic Pentameric Ligand-Gated Ion Channel ELIC by Divalent Cations” (PLoS Biology, 2012)
